Experiments:
Tankyrase 1 (TNKS1) = target: T1, Tankyrase 1 (TNKS1) (Homo sapiens, UniProt O95271); test: μHTS-TNKS-IWR2 TR-FRET binding assay (TNKS1)
T1 construct: construct: 1088-1327, 1266M
Protocol: (§1) μHTS-TNKS-IWR2TR-FRET Binding Assay
(§2) (10 μL/well in BD1536-well plate, a single point)
Reagents and Stock Solutions
(§3) Biotin-IWR2: 10 mM Biotin-IWR2 stock in DMSO, stored at −20° C.
Assay buffer 1a (AB 1a) for TNKS dilution: 50 mM Tris, pH 7.4, 100 mM sodium chloride solution, 1 mM magnesium chloride solution, 1 mM DL-dithiothreitol solution, 0.2 mg/mL bovine serum albumin solution, 0.025% NP-40.
Assay buffer 1b (AB 1b) for Biotin-IWR2 dilution: 50 mM Tris, pH 7.4, 100 mM sodium chloride solution, 1 mM magnesium chloride solution, 1 mM DL-dithiothreitol solution, 0.2 mg/mL bovine serum albumin solution, 0.05% NP-40
Assay buffer 1c (AB 1c) for compound dilution: 50 mM Tris, pH 7.4, 100 mM sodium chloride solution, 1 mM magnesium chloride solution, 1 mM DL-dithiothreitol solution, 0.2 mg/mL bovine serum albumin solution
Assay buffer 2 (AB2) for Eu/APC: 50 mM Tris, pH 7.4, 100 mM sodium chloride solution, 1 mM magnesium chloride solution, 0.2 mg/mL bovine serum albumin solution
Reagent Stock Solution Preparation
Prepare BLANK well stock solution: 5% DMSO/AB1b buffer
Prepare TNKS1 stock solution (5× stock): 300 nM TNKS in AB1a buffer
(§4) Transfer 3 μL/well above solution (solution 1,2,3) to an empty assay plate (BD1536-well plate) as follows:
TOTL and cpd wells: Solution 1 (Biotin-IWR2):
BLNK wells: Solution 2 (No Biotin-IWR2):
POSITIVE CONTROL wells: Solution 3 (Biotin-IWR2+XAV939)
(§5) Transfer 3 μL/well of the above diluted compound solutions or compound dilution buffer to the above assay plate.
(§6) Add 2 μL/well of 300 nM TNKS stock solution (4) to every well in the above assay plate.
Centrifuge the assay plate at 2100 rpm for 2 minutes.
(§7) Incubate the assay plate at 26° C. for 30 minutes.
(§8) Incubate the assay plate at 26° C. for 60 minutes.

tankyrase 2 (His6-TNKS2) = target: T2, tankyrase 2 (His6-TNKS2) (Homo sapiens, UniProt Q9H2K2); test: μHTS-TNKS-IWR2 TR-FRET binding assay with His6-TNKS2 in place of TNKS1; conditions: Table I
T2 construct: His6-tankyrase 2 (construct: 934-1166)
Protocol: as §1, §2
(§9) Alternatively, in place of His6-TNKS1 can use either His6-tankyrase 2 (construct: 934-1166) (His6-TNKS2) or His6-PARP1 (full length).
as §3
Positive control: 10 mM XAV 939 in DMSO, stored at −20° C.
(§10) Prepare Biotinylated IWR2 stock solution (3.33× stock) for TOTL and cpd wells: 200 nM Biotin-IWR2 in 5% DMSO/AB1b buffer
(§11) Prepare POSITIVE CONTROL well stock solution (3.33× stock): 200 nM XAV939 in 200 nM Biotin-IWR2/5% DMSO/AB1b buffer
(§12) (Alternatively, use TNKS2 or PARP1 stock solutions.)
(§13) Prepare Eu/APC stock solution (5× stock): 3.5 nM Eu-SA/50 nM APC-His6Ab in AB2 buffer
(§14) Add 25 μL/well 1.5% DMSO/AB1c buffer in each compound well to the compound concentration at 74 μM in 8.8% DMSO/AB1c buffer or in the 2 μL DMSO CONTROL wells (BLANK, TOTAL and POSITIVE wells) in the compound plate.
as §4, §5, §6, §7, §8
(§15) Read the assay plate immediately at excitation wavelength of 330 nm and emission wavelength of […] in time resolved fluorescence mode.
(§16) Representative compound data for assays are listed below in Table I. Values are in uM.

[1] = target: T3, PARP1 (His6-PARP1, full length) (Homo sapiens, UniProt P09874); test: μHTS-TNKS-IWR2 TR-FRET binding assay with His6-PARP1 in place of TNKS1; conditions: Table I
T3 construct: His6-PARP1 (full length)
Protocol: as §1, §2, §9, §3
Positive control: 10 mM […] in DMSO, stored at −20° C.
as §10, §11, §12, §13, §14, §4, §5, §6, §7, §8, §15, §16

T2 sequence (Q9H2K2 934-1166): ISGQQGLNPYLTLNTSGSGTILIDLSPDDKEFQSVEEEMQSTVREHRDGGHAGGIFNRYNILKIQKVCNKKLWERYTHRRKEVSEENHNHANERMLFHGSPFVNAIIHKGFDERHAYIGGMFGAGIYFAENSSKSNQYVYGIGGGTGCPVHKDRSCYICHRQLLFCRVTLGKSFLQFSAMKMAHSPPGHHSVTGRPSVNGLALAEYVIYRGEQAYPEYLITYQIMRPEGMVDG
T3 sequence (P09874 whole entry): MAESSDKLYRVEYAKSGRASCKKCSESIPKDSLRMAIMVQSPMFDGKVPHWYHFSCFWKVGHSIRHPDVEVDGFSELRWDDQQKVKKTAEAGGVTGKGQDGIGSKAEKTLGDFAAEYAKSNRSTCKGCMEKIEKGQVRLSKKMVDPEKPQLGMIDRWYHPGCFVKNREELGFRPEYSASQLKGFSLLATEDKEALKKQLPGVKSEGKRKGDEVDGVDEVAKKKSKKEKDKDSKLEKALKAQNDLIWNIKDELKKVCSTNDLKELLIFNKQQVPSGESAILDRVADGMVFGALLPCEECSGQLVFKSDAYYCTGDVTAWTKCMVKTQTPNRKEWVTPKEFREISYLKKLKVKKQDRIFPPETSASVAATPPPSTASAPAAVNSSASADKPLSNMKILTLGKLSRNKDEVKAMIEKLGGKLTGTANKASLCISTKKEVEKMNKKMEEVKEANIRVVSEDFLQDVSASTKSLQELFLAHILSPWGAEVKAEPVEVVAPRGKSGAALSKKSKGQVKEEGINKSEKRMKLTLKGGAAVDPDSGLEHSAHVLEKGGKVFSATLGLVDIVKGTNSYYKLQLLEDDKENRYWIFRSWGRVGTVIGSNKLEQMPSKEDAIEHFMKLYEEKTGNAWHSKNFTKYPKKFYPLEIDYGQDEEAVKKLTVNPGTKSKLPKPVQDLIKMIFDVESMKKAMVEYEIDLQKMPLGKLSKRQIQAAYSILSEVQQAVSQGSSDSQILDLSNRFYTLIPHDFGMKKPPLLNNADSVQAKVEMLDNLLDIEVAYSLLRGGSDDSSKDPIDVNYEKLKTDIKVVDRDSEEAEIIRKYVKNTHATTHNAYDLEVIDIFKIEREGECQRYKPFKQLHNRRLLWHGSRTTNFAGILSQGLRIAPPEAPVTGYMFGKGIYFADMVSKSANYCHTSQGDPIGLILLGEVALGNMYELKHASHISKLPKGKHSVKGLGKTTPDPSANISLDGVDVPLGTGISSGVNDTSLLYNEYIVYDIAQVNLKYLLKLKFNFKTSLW
T1 sequence (O95271 1088-1327): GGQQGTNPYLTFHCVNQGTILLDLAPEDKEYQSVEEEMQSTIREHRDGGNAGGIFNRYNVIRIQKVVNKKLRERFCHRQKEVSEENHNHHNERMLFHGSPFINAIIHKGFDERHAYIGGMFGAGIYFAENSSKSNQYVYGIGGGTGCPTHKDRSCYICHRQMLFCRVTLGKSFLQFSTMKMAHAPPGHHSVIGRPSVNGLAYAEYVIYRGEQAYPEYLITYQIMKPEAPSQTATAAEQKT

Structure (SMILES) | IC50 (Tankyrase 1 (TNKS1)) [nM] | IC50 (tankyrase 2 (His6-TNKS2)) [nM] | IC50 [1] [nM]
Cn1ccc2c(=O)[nH]c(N3CCN(c4ncccc4C(F)(F)F)CC3)nc21 [Example 6, 7-Methyl-2-[4-(3-trifluoromethyl-pyridin-2-yl)-piperazin-1-yl]-3,7-dihydro-pyrrolo[2,3-d]pyrimidin-4-one] | 34 | 36 | 2210
Cn1ccc2c(=O)[nH]c(N3CCN(c4ncccn4)CC3)nc21 [Example 8, 7-Methyl-2-(4-pyrimidin-2-yl-piperazin-1-yl)-3,7-dihydro-pyrrolo[2,3-d]pyrimidin-4-one] | 190 | 143 | 339
Cn1ccc2c(=O)[nH]c(N3CCN(c4ncccc4C#N)CC3)nc21 [Example 9, 2-[4-(7-Methyl-4-oxo-4,7-dihydro-3H-pyrrolo[2,3-d]pyrimidin-2-yl)-piperazin-1-yl]-nicotinonitrile] | 70 | 63 | 618
Cn1ccc2c(=O)[nH]c(N3CCN(c4nccnc4C#N)CC3)nc21 [Example 10, 4-(7-Methyl-4-oxo-4,7-dihydro-3H-pyrrolo[2,3-d]pyrimidin-2-yl)-3,4,5,6-tetrahydro-2H-[1,2]bipyrazinyl-3′-carbonitrile] | 111 | 121 | 603
CN1CCN(c2nc3c(ccn3C)c(=O)[nH]2)CC1 [Example 11, 7-Methyl-2-(4-methyl-piperazin-1-yl)-3,7-dihydro-pyrrolo[2,3-d]pyrimidin-4-one] | 358 | 285 | 471
Cn1ccc2c(=O)[nH]c(N3CCOCC3)nc21 [Example 12, 7-Methyl-2-morpholin-4-yl-3,7-dihydro-pyrrolo[2,3-d]pyrimidin-4-one] | 1910 | 1830 | 1720
Cn1ccc2c(=O)[nH]c(N3CCN(S(C)(=O)=O)CC3)nc21 [Example 13, 2-(4-Methanesulfonyl-piperazin-1-yl)-7-methyl-3,7-dihydro-pyrrolo[2,3-d]pyrimidin-4-one] | 112 | 126 | 604
CC(=O)N1CCN(c2nc3c(ccn3C)c(=O)[nH]2)CC1 [Example 14, 2-(4-Acetyl-piperazin-1-yl)-7-methyl-3,7-dihydro-pyrrolo[2,3-d]pyrimidin-4-one] | 466 | 427 | 229
Cn1ccc2c(=O)[nH]c(N3CC(C)(c4ccc(Br)cc4)C3)nc21 [Example 15, 2-[3-(4-Bromo-phenyl)-3-methyl-azetidin-1-yl]-7-methyl-3,7-dihydro-pyrrolo[2,3-d]pyrimidin-4-one] | 348 | 192 | 3460
Cn1ccc2c(=O)[nH]c(N3CCC(c4ccccc4)C3)nc21 (stereo not drawn) [Example 16, 7-Methyl-2-(3-phenyl-pyrrolidin-1-yl)-3,7-dihydro-pyrrolo[2,3-d]pyrimidin-4-one] | 915 | 1070 | 1260
Cn1ccc2c(=O)[nH]c(N3CCN(c4ccc(S(C)(=O)=O)cc4F)CC3)nc21 [Example 24, 2-[4-(2-Fluoro-4-methanesulfonyl-phenyl)-piperazin-1-yl]-7-methyl-3,7-dihydro-pyrrolo[2,3-d]pyrimidin-4-one] | 35 | 47 | 1280
Cn1ccc2c(=O)[nH]c(N3CCN(c4cc(C(F)(F)F)ccn4)CC3)nc21 [Example 25, 7-Methyl-2-[4-(4-trifluoromethyl-pyridin-2-yl)-piperazin-1-yl]-3,7-dihydro-pyrrolo[2,3-d]pyrimidin-4-one] | 292 | 200 | 557

More lines, now with the values ahead:

IC50 (Tankyrase 1 (TNKS1)) [nM] | IC50 (tankyrase 2 (His6-TNKS2)) [nM] | IC50 [1] [nM] | Structure (SMILES)
722 | 593 | 143 | Cn1ccc2c(=O)[nH]c(N3CCN(c4ccncc4)CC3)nc21 [Example 1, 7-Methyl-2-(4-pyridin-4-yl-piperazin-1-yl)-3,7-dihydro-pyrrolo[2,3-d]pyrimidin-4-one]
70 | 66 | 564 | CCOC(=O)c1ccc(N2CCN(c3nc4c(ccn4C)c(=O)[nH]3)CC2)cc1 [Example 2, Ethyl 4-(4-(7-methyl-4-oxo-4,7-dihydro-3H-pyrrolo[2,3-d]pyrimidin-2-yl)piperazin-1-yl)benzoate]
42 | 51 | 1060 | Cn1ccc2c(=O)[nH]c(N3CCN(c4ccc(Cl)cc4)CC3)nc21 [Example 3, 2-[4-(4-Chloro-phenyl)-piperazin-1-yl]-7-methyl-3,7-dihydro-pyrrolo[2,3-d]pyrimidin-4-one]
134 | 118 | 437 | Cn1ccc2c(=O)[nH]c(N3CCN(c4ccccn4)CC3)nc21 [Example 4, 7-Methyl-2-(4-pyridin-2-yl-piperazin-1-yl)-3,7-dihydro-pyrrolo[2,3-d]pyrimidin-4-one]
30 | 35 | 1180 | Cn1ccc2c(=O)[nH]c(N3CCN(c4ccc(F)cc4S(C)(=O)=O)CC3)nc21 [Example 5, 2-[4-(4-Fluoro-2-methanesulfonyl-phenyl)-piperazin-1-yl]-7-methyl-3,7-dihydro-pyrrolo[2,3-d]pyrimidin-4-one]
494 | 405 | > 50000 | Cn1ccc2c(=O)[nH]c(N3CCN(c4cc(Cl)cc(Cl)c4)CC3)nc21 [Example 7, 2-[4-(3,5-Dichloro-phenyl)-piperazin-1-yl]-7-methyl-3,7-dihydro-pyrrolo[2,3-d]pyrimidin-4-one]
27 | 32 | 1080 | Cn1ccc2c(=O)[nH]c(N3CCN(c4ccc(F)cc4)CC3)nc21 [Example 17, 2-[4-(4-Fluoro-phenyl)-piperazin-1-yl]-7-methyl-3,7-dihydro-pyrrolo[2,3-d]pyrimidin-4-one]
59 | 59 | 758 | Cn1ccc2c(=O)[nH]c(N3CCN(c4cccc(F)c4)CC3)nc21 [Example 18, 2-[4-(3-Fluoro-phenyl)-piperazin-1-yl]-7-methyl-3,7-dihydro-pyrrolo[2,3-d]pyrimidin-4-one]
43 | 34 | 1050 | Cn1ccc2c(=O)[nH]c(N3CCN(c4ccccc4C#N)CC3)nc21 [Example 19, 2-[4-(7-Methyl-4-oxo-4,7-dihydro-3H-pyrrolo[2,3-d]pyrimidin-2-yl)-piperazin-1-yl]-benzonitrile]
31 | 36 | 1220 | Cn1ccc2c(=O)[nH]c(N3CCN(c4ccc(F)cc4F)CC3)nc21 [Example 20, 2-[4-(2,4-Difluoro-phenyl)-piperazin-1-yl]-7-methyl-3,7-dihydro-pyrrolo[2,3-d]pyrimidin-4-one]
81 | 90 | 612 | Cn1ccc2c(=O)[nH]c(N3CCN(c4cccc(C#N)c4)CC3)nc21 [Example 21, 3-[4-(7-Methyl-4-oxo-4,7-dihydro-3H-pyrrolo[2,3-d]pyrimidin-2-yl)-piperazin-1-yl]-benzonitrile]
97 | 74 | 453 | Cn1ccc2c(=O)[nH]c(N3CCN(c4ccc(C#N)cc4)CC3)nc21 [Example 22, 4-[4-(7-Methyl-4-oxo-4,7-dihydro-3H-pyrrolo[2,3-d]pyrimidin-2-yl)-piperazin-1-yl]-benzonitrile]
28 | 31 | 42100 | Cn1ccc2c(=O)[nH]c(N3CCN(c4ccccc4C(F)(F)F)CC3)nc21 [Example 23, 7-Methyl-2-[4-(2-trifluoromethyl-phenyl)-piperazin-1-yl]-3,7-dihydro-pyrrolo[2,3-d]pyrimidin-4-one]
